# In US7485633B2, “Cyclopropyl fused indolobenzazepine HCV NS5B inhibitors” (Bristol-Myers Squibb Company, priority 2005, dated 2009):
# Test system: HCV replicon cells
# Assay: HCV replicon FRET assay
# Type: cell-based
# Details: Hepatitis C virus
# Description: FRET Assay Preparation. To perform the HCV FRET screening assay, 96-well cell culture plates were used. The FRET peptide (Anaspec, Inc.) (Taliani et al., Anal. Biochem. 1996, 240, 60-67) contains a fluorescence donor, EDANS, near one end of the peptide and an acceptor, DABCYL, near the other end. The fluorescence of the peptide is quenched by […] resonance energy transfer (RET) between the donor and the acceptor, but as the NS3 protease cleaves the peptide the products are released from RET quenching and the fluorescence of the donor becomes apparent. The assay reagent was made as follows: 5× cell Luciferase cell culture lysis reagent from Promega (#E153A) diluted to 1× with dH2O, NaCl added to 150 mM final, the FRET peptide diluted to 20 uM final from a 2 mM stock.
# To prepare plates, HCV replicon cells, with or without a Renilla luciferase reporter gene, were trypsinized and placed into each well of a 96-well plate with titrated test compounds added in columns 3 through 12; columns 1 and 2 contained a control compound (HCV protease inhibitor), and the bottom row contained cells without compound. The plates were then placed in a CO2 incubator at 37° C.
# Assays. Subsequent to addition of the test compounds described above (FRET Assay Preparation), at various times the plate was removed and Alamar blue solution (Trek Diagnostics, #00-100) was added per well as a measure of cellular toxicity. After reading in a Cytoflour 4000 instrument (PE Biosystems), plates were rinsed with PBS and then used for FRET assay by the addition of 30 ul of the FRET peptide assay reagent described above (FRET Assay Preparation) per well. The plate was then placed into the Cytoflour 4000 instrument which had been set to 340 excite/490 emission, automatic mode for 20 cycles and the plate read in a kinetic mode. Typically, the signal to noise using an endpoint analysis after the reads was at least three-fold. Alternatively, after Alamar blue reading, plates were rinsed with PBS, 50 ul of DMEM (high glucose) without phenol red was added and plates were then used for luciferase assay using the Promega Dual-Glo Luciferase Assay System.
# Compound analysis was determined by quantification of the relative HCV replicon inhibition and the relative cytotoxicity values. To calculate cytoxicity values, the average Alamar Blue fluorescence signals from the control wells were set as 100% non-toxic. The individual signals in each of the compound test wells were then divided by the average control signal and multiplied by 100% to determine […]. To calculate the HCV replicon inhibition values, an average background value was obtained from the two wells containing the highest amount of HCV protease inhibitor at the end of the assay period. These numbers were similar to those obtained from naïve Huh-7 cells.
# The background numbers were then subtracted from the average signal obtained from the control wells and this number was used as 100% activity. The individual signals in each of the compound test wells were then divided by the averaged control values after background subtraction and multiplied by 100% to determine percent activity. EC50 values for a protease inhibitor titration were calculated as the concentration which caused a 50% reduction in FRET or luciferase activity. The two numbers generated for the compound plate, percent cytoxicity and percent activity were used to determine compounds of interest for further analysis.
row,Compound,EC50 [nM]
1,O=C(O)c1ccc2c(C3CCCCC3)c3n(c2c1)CC1(C(=O)N2CCOCC2)CC1c1ccccc1-3 (centres unmarked),20 to 1000
2,CN(C)S(=O)(=O)NC(=O)c1ccc2c(C3CCCCC3)c3n(c2c1)CC1(C(=O)N2CCOCC2)CC1c1ccccc1-3 (centres unmarked),20 to 1000
3,COC(=O)c1ccc2c(C3CCCCC3)c3n(c2c1)CC1(C(=O)OC)CC1c1cc(OC)ccc1-3 (centres unmarked),20 to 1000
4,COc1ccc2c(c1)C1CC1(C(=O)N1C[C@@H](C)O[C@@H](C)C1)Cn1c-2c(C2CCCCC2)c2ccc(C(=O)NS(=O)(=O)N(C)C)cc21 (some centres unmarked),20 to 1000
5,COC(=O)C12CC1c1cc(OC)ccc1-c1c(C3CCCCC3)c3ccc(C(=O)O)cc3n1C2 (centres unmarked),1000 to 10000
6,COc1ccc2c(c1)C1CC1(C(=O)N1C[C@@H](C)N[C@@H](C)C1)Cn1c-2c(C2CCCCC2)c2ccc(C(=O)NS(=O)(=O)N(C)C)cc21 (some centres unmarked),20 to 1000
7,COc1ccc2c(c1)C1CC1(C(=O)N1CCOCC1)Cn1c-2c(C2CCCCC2)c2ccc(C(=O)NS(=O)(=O)N(C)C)cc21 (centres unmarked),20 to 1000
8,COC[C@H]1CN(C(=O)C23CC2c2cc(OC)ccc2-c2c(C4CCCCC4)c4ccc(C(=O)NS(=O)(=O)N(C)C)cc4n2C3)CCO1 (some centres unmarked),20 to 1000
9,COC[C@@H]1CN(C(=O)C23CC2c2cc(OC)ccc2-c2c(C4CCCCC4)c4ccc(C(=O)NS(=O)(=O)N(C)C)cc4n2C3)CCO1 (some centres unmarked) [listing 1 of 2 here],20 to 1000
10,COC[C@@H]1CN(C(=O)C23CC2c2cc(OC)ccc2-c2c(C4CCCCC4)c4ccc(C(=O)NS(=O)(=O)N(C)C)cc4n2C3)CCO1 (some centres unmarked) [listing 2 of 2 here],97 to 1000
11,"O=C(O)c1ccc2c(C3CCCCC3)c3n(c2c1)C[C@@]1(C(=O)N2CCOCC2)C[C@H]1c1ccccc1-3 (single isomer, unassigned)",20 to 1000
12,"O=C(O)c1ccc2c(C3CCCCC3)c3n(c2c1)C[C@]1(C(=O)N2CCOCC2)C[C@@H]1c1ccccc1-3 (single isomer, unassigned)",20 to 1000
13,"CN(C)S(=O)(=O)NC(=O)c1ccc2c(C3CCCCC3)c3n(c2c1)C[C@@]1(C(=O)N2CCOCC2)C[C@H]1c1ccccc1-3 (single isomer, unassigned)",20 to 1000
14,"CN(C)S(=O)(=O)NC(=O)c1ccc2c(C3CCCCC3)c3n(c2c1)C[C@]1(C(=O)N2CCOCC2)C[C@@H]1c1ccccc1-3 (single isomer, unassigned)",20 to 1000

# Same assay, conditions: Hepatitis C virus, HCV replicon cells, FRET assay; read-out: EC50
row,Compound,EC50 [nM]
1,COC(=O)c1ccc2c(C3CCCCC3)c3n(c2c1)CC1(C(=O)N2CCOCC2)CC1c1ccccc1-3 (centres unmarked),20 to 1000
2,COc1ccc2c(c1)C1CC1(C(=O)N1CCOCC1)Cn1c-2c(C2CCCCC2)c2ccc(C(=O)O)cc21 (centres unmarked),20 to 1000
3,COc1ccc2c(c1)C1CC1(C(=O)N1C[C@@H](C)O[C@@H](C)C1)Cn1c-2c(C2CCCCC2)c2ccc(C(=O)O)cc21 (some centres unmarked),20 to 1000
4,CCN(CC)C1CCN(C(=O)C23CC2c2cc(OC)ccc2-c2c(C4CCCCC4)c4ccc(C(=O)NS(=O)(=O)N(C)C)cc4n2C3)CC1 (centres unmarked),20 to 1000
5,COc1ccc2c(c1)C1CC1(C(=O)N1CCOC(CN(C)C)C1)Cn1c-2c(C2CCCCC2)c2ccc(C(=O)NS(=O)(=O)C3CC3)cc21 (centres unmarked),20 to 1000
6,COc1ccc2c(c1)C1CC1(C(=O)N1CCC(N3CCOCC3)CC1)Cn1c-2c(C2CCCCC2)c2ccc(C(=O)NS(=O)(=O)C3CC3)cc21 (centres unmarked),20 to 1000
7,COC(=O)C12CC1c1cc(OC)ccc1-c1c(C3CCCCC3)c3ccc(C(=O)OC(C)(C)C)cc3n1C2 (centres unmarked),> 10000
8,COc1ccc2c(c1)C1C[C@]1(C(=O)O)Cn1c-2c(C2CCCCC2)c2ccc(C(=O)NS(=O)(=O)N(C)C)cc21 (some centres unmarked),1000 to 10000
9,COc1ccc2c(c1)C1CC1(C(=O)N1CCOCC1)Cn1c-2c(C2CCCCC2)c2ccc(C(=O)NS(=O)(=O)N3CCN(C)CC3)cc21 (centres unmarked),20 to 1000
10,COc1ccc2c(c1)C1CC1(C(=O)N1CCOCC1)Cn1c-2c(C2CCCCC2)c2ccc(C(=O)NS(=O)(=O)N3CCOCC3)cc21 (centres unmarked),20 to 1000
11,COc1ccc2c(c1)C1CC1(C(=O)N1CCOCC1)Cn1c-2c(C2CCCCC2)c2ccc(C(=O)NS(=O)(=O)C3CC3)cc21 (centres unmarked),20 to 1000
12,COc1ccc2c(c1)C1CC1(C(=O)N(C)C)Cn1c-2c(C2CCCCC2)c2ccc(C(=O)NS(=O)(=O)N(C)C)cc21 (centres unmarked),20 to 1000
13,CC(C)c1ccc2c(c1)C1CC1(C(=O)N1CCOCC1)Cn1c-2c(C2CCCCC2)c2ccc(C(=O)O)cc21 (centres unmarked),20 to 1000
14,COC(=O)C12CC1c1cc(O)ccc1-c1c(C3CCCCC3)c3ccc(C(=O)NS(=O)(=O)N(C)C)cc3n1C2 (centres unmarked),20 to 1000
15,Cc1ccc2c(c1)C1CC1(C(=O)N1CCOCC1)Cn1c-2c(C2CCCCC2)c2ccc(C(=O)O)cc21 (centres unmarked),20 to 1000
16,CCc1ccc2c(c1)C1CC1(C(=O)N1CCOCC1)Cn1c-2c(C2CCCCC2)c2ccc(C(=O)NS(=O)(=O)N(C)C)cc21 (centres unmarked),20 to 1000
17,CCc1ccc2c(c1)C1CC1(C(=O)N1CCOCC1)Cn1c-2c(C2CCCCC2)c2ccc(C(=O)O)cc21 (centres unmarked),20 to 1000
18,CC(C)Oc1ccc2c(c1)C1CC1(C(=O)N1CCOCC1)Cn1c-2c(C2CCCCC2)c2ccc(C(=O)NS(=O)(=O)N(C)C)cc21 (centres unmarked),20 to 1000

row,Compound,EC50 [nM]
1,C=Cc1ccc2c(c1)C1CC1(C(=O)N1CCOCC1)Cn1c-2c(C2CCCCC2)c2ccc(C(=O)O)cc21 (centres unmarked),20 to 1000
2,CCOc1ccc2c(c1)C1CC1(C(=O)N1CCOCC1)Cn1c-2c(C2CCCCC2)c2ccc(C(=O)NS(=O)(=O)N(C)C)cc21 (centres unmarked),20 to 1000
3,CN(C)S(=O)(=O)NC(=O)c1ccc2c(C3CCCCC3)c3n(c2c1)CC1(C(=O)N2CCOCC2)CC1c1cc(O)ccc1-3 (centres unmarked),20 to 1000
4,CC(C)Oc1ccc2c(c1)C1CC1(C(=O)N1CCOCC1)Cn1c-2c(C2CCCCC2)c2ccc(C(=O)O)cc21 (centres unmarked),20 to 1000
5,CCOc1ccc2c(c1)C1CC1(C(=O)N1CCOCC1)Cn1c-2c(C2CCCCC2)c2ccc(C(=O)O)cc21 (centres unmarked),20 to 1000
6,COC(=O)c1ccc2c(C3CCCCC3)c3n(c2c1)CC1(C(=O)N2CCOCC2)CC1c1cc(OC(C)C)ccc1-3 (centres unmarked),20 to 1000
7,COc1ccc2c(c1)C1CC1(C(=O)N1CCC(N3CCOCC3)CC1)Cn1c-2c(C2CCCCC2)c2ccc(C(=O)O)cc21 (centres unmarked),20 to 1000
8,CCN(CC)C(=O)CN(C)C(=O)C12CC1c1cc(OC)ccc1-c1c(C3CCCCC3)c3ccc(C(=O)NS(=O)(=O)N(C)C)cc3n1C2 (centres unmarked),20 to 1000
9,C[C@@H]1CN(C(=O)C23CC2c2cc(OCc4ccccc4)ccc2-c2c(C4CCCCC4)c4ccc(C(=O)NS(=O)(=O)N(C)C)cc4n2C3)C[C@H](C)O1 (some centres unmarked),20 to 1000
10,C[C@@H]1CN(C(=O)C23CC2c2cc(O)ccc2-c2c(C4CCCCC4)c4ccc(C(=O)NS(=O)(=O)N(C)C)cc4n2C3)C[C@H](C)O1 (some centres unmarked),20 to 1000
11,COc1ccc2c(c1)C1C[C@]1(C(=O)N[C@@H]1C3CCC(C)([C@@H]1O)C3(C)C)Cn1c-2c(C2CCCCC2)c2ccc(C(=O)NS(=O)(=O)N(C)C)cc21 (some centres unmarked),20 to 1000
12,COc1ccc2c(c1OCc1ccccc1)C1CC1(C(=O)O)Cn1c-2c(C2CCCCC2)c2ccc(C(=O)NS(=O)(=O)N(C)C)cc21 (centres unmarked),> 1000
13,CCN(C)CCN(C)C(=O)C12CC1c1cc(OC)ccc1-c1c(C3CCCCC3)c3ccc(C(=O)NS(=O)(=O)N(C)C)cc3n1C2 (centres unmarked),97 to 1000
14,COc1ccc2c(c1)[C@@H]1C[C@]1(C(=O)N1CCCC[C@H]1CN(C)C)Cn1c-2c(C2CCCCC2)c2ccc(C(=O)NS(=O)(=O)N(C)C)cc21,97 to 1000
15,COc1ccc2c(c1)[C@@H]1C[C@]1(C(=O)N1CCCC[C@@H]1CN(C)C)Cn1c-2c(C2CCCCC2)c2ccc(C(=O)NS(=O)(=O)N(C)C)cc21,97 to 1000
16,COc1ccc2c(c1)C1CC1(C(=O)N1C[C@@H](C)O[C@@H](C)C1)Cn1c-2c(C2CCCCC2)c2ccc(C(=O)NS(C)(=O)=O)cc21 (some centres unmarked),97 to 1000
17,"COc1ccc2c(c1)C1C[C@@]1(C(=O)O)Cn1c-2c(C2CCCCC2)c2ccc(C(=O)NS(=O)(=O)N(C)C)cc21 (single isomer, unassigned)",1000 to 10000

# Test system: HCV
# Assay: not given
# Details: HCV patients, combination therapy; cited from earlier work
row,Compound,sustained efficacy
1,alpha-interferon and ribavirin,40 % of patients
